Measurements as given in patent publication US11612662B2, “Multi-arm polymeric prodrug conjugates of pemetrexed-based compounds” (priority 2010, dated 2023).

Experiments:
in vivo = settings: for Days of Deaths (s = surviving at study end): five mice listed singly; for Day of Max. Mean Body Weight Loss (body weight nadir) / % Rx Related Deaths: once each day for ten days; for MTD at 10 days: female, SCID (HsdIcr:Ha (ICR)-Prkdc-scid), iv
Procedure: The purpose of this study was to determine the maximum tolerated dose for pemetrexed (PMX), Compound 20a (from Example 1), Compound 20b (from Example 1), Compound 20c (from Example 1), and Compound 20d (from Example 1) in female SCID mice fed a low folate diet. All compounds were administered intravenously, once each day, for ten consecutive days.
Calculations were made to provide “dose equivalents” between PMX, Compound 20a, Compound 20b, Compound 20c and Compound 20d, which “dose equivalents” along with the “actual dose” administered are provided in Table 2. All dosagese in this example are expressed in terms of “dose equivalents” and adjustments were made for excipients, salts and hydration state.
Female SCID mice (HsdIcr:Ha (ICR)-Prkdc-scid) were obtained from Harlan. They were seven weeks old on Day 1 of the experiment. The mice in Groups 1 and 2 were fed irradiated Rodent Diet 5053 (LabDiet™). The mice in Groups 3 through 19 were fed irradiated Folic Acid Deficient Purina TestDiet supplemented with 1% succinylsufathiazol from 14 days prior to dosing until 14 days after dosing was completed, at which time the study was terminated and the mice were then euthanized. All groups received drinking water ad libitum. Mice were housed in static cages in clean rooms that provide H.E.P.A filtered air into the environment at 100 complete air changes per hour. All treatments, body weight determinations, and tumor measurements were carried out in the environment. The environment was controlled to a temperature range of 70°±2° F. and a humidity range of 30-70%. […] Mice found in obvious distress or in a moribund condition were euthanized. The study was carried out in an AAALAC accredited facility.
Treatments began on Day 1. […] Mice in Groups 3 through 19 were fed irradiated Folic Acid Deficient Purina TestDiet with 1% Succinylsufathiazol for 14 days prior to dosing as well as throughout the entire experiment. All mice were dosed according to individual body weight on the day of treatment (0.2 ml/20 g).
Mice were weighed on each day of treatment and at least three times weekly thereafter. Individual body weights were recorded three times weekly. […] In this report, a dosage level is described as tolerated if treatment-related weight loss (during and two weeks after treatment) is <20%. Upon death or euthanasia, all mice were necropsied to provide a general assessment of potential cause of death and perhaps target organs for toxicity.

[1] = Single dose maximum tolerated dose study; format: in vivo, mice; settings: single intravenous dose
Procedure: Because of too much efficacy of daily dosing for ten days in a pilot xenograft study (likely due to the effects of repeated dosing), a single dose maximum tolerated dose study was conducted using a method similar to that provided in Example 3 in order to have a better dosing schedule for a comparative xenograft study.

xenograft = test: In vivo xenograft study; design: species or system female athymic nu/nu mice; settings: as of day 26; intravenously, at 80% and at 50% of the single dose maximum tolerated dose
Procedure: Briefly, for run of the experiment, a previously untreated group of 8-12 week old mice was intravenously administered a test article prepared in saline and diluted to appropriate concentrations to allow administration volumes of a maximum of 20 mL/kg. Each compound of interest was tested twice: once at 80% of the maximum tolerated dose and once at 50% of the maximum tolerated (maximum tolerated doses calculated on the single dose maximum tolerated dose study).
Mice were observed daily for clinical signs and body weights were recorded daily (except on weekend days) then biweekly until the end of study. Dosing was terminated for any group in which mean weight loss exceeded 20% or >10% of animals died. Moribund animals were euthanized.

[2] = in vivo; cited from earlier work
[3] = low folate diet, 1 mg/kg/inj dose equivalents
[4] = low folate diet, 1 mg/kg, tolerated if treatment-related weight loss <20%
[5] = low folate diet, 3.75 mg/kg/inj dose equivalents
[6] = low folate diet, 3.75 mg/kg, tolerated if treatment-related weight loss <20%
[7] = low folate diet, 15 mg/kg, tolerated if treatment-related weight loss <20%
[8] = low folate diet, dosage levels found tolerated
[9] = low folate diet, dosage levels found toxic
[10] = low folate diet, intravenously once each day for ten days, 1 mg/kg/inj dose equivalents
[11] = low folate diet, intravenously once each day for ten days, 3.75 mg/kg/inj dose equivalents
[12] = low folate diet, intravenously once each day for ten days, 15 mg/kg/inj dose equivalents
[13] = low folate diet, 15 mg/kg/inj dose equivalents
[14] = low folate diet, 60 mg/kg/inj dose equivalents

4-arm-PEG40k-γ-amide-Pemetrexed Conjugate [Compound 20d]
maximum treatment-related body weight loss (in vivo; low folate diet, 1 mg/kg): 0.9% | time to recover lost body weight (in vivo; low folate diet, 1 mg/kg): 0.8 days | Days of Deaths (s = surviving at study end) (in vivo; [3]): s, s, s, s, s | tolerability of the dosage level (in vivo; [4]): tolerated | maximum treatment-related body weight loss (in vivo; low folate diet, 3.75 mg/kg): 4.5% | time to recover lost body weight (in vivo; low folate diet, 3.75 mg/kg): 11.3 days | Days of Deaths (s = surviving at study end) (in vivo; [5]): s, s, s, s, s | tolerability of the dosage level (in vivo; [6]): tolerated | maximum treatment-related body weight loss (in vivo; low folate diet, 15 mg/kg): 28.8% | time to recover lost body weight (in vivo; low folate diet, 15 mg/kg): not recovered prior to study termination | tolerability of the dosage level (in vivo; [7]): toxic | common clinical signs (in vivo; [8]): Rough pelage | necropsy findings (in vivo; [8]): Nothing significant | common clinical signs (in vivo; [9]): Rough pelage | necropsy findings (in vivo; [9]): Nothing significant | Max. Mean Body Weight change during Rx (%) (in vivo; [10]): −0.9% | Max. Mean Body Weight change during Rx (%) (in vivo; [11]): −4.5% | Max. Mean Body Weight change during Rx (%) (in vivo; [12]): −28.8% | Day of Max. Mean Body Weight Loss (body weight nadir) (in vivo; [3]): 5 | Day of Max. Mean Body Weight Loss (body weight nadir) (in vivo; [5]): 5 | % Rx Related Deaths (in vivo; [13]): 40% | Day of Max. Mean Body Weight Loss (body weight nadir) (in vivo; [13]): 15 | MTD (maximum tolerated dose) (in vivo; mice fed a folate deficient diet, intravenously once each day for ten days, dose equivalents): 3.75 to 15 mg/kg | Single dose MTD ([1]; dose equivalents, in mg/kg): ~40 | BWL (body weight loss) ([1]; tested dose (equiv) 40): −12.6% | day (of body weight loss) ([1]; tested dose (equiv) 40): 7 | treatment-related deaths ([1]; tested dose (equiv) 40): 0 | BWL (body weight loss) ([1]; tested dose (equiv) 60): −20.8% | day (of body weight loss) ([1]; tested dose (equiv) 60): 9 | treatment-related deaths ([1]; tested dose (equiv) 60): 0 | BWL (body weight loss) ([1]; tested dose (equiv) 90): −21.4% | day (of body weight loss) ([1]; tested dose (equiv) 90): 9 | mean day of death ([1]; tested dose (equiv) 90): 12 | treatment-related deaths ([1]; tested dose (equiv) 90): 1 | BWL (body weight loss) ([1]; tested dose (equiv) 125): −21.8% | day (of body weight loss) ([1]; tested dose (equiv) 125): 6 | mean day of death ([1]; tested dose (equiv) 125): 7 | treatment-related deaths ([1]; tested dose (equiv) 125): 5 | tumor volume compared with saline control (xenograft): significantly less tumor volume than saline control | tumor volume compared with the other articles tested (xenograft): lowest tumor volumes of all articles tested

Nc1nc2[nH]cc(CCc3ccc(C(=O)N[C@@H](CCC(=O)O)C(=O)O)cc3)c2c(=O)[nH]1 [Pemetrexed, pemetrexed]
MTD at 10 days (in vivo; mouse, in vivo, MTD (maximum tolerated dose), mice fed a folate deficient diet, intravenously once each day for ten days, dose equivalents): 1 mg/kg | MTD at 10 days (in vivo; mouse, in vivo, maximum tolerated dose, mice fed a conventional diet, intravenously once each day for ten days): < 250 mg/kg | maximum treatment-related body weight loss (in vivo; low folate diet, 1 mg/kg): 12.8% | Days of Deaths (s = surviving at study end) (in vivo; [3]): s, s, s, s, s | tolerability of the dosage level (in vivo; [4]): tolerated | Days of Deaths (s = surviving at study end) (in vivo; [5]): s, s, s, s, s | tolerability of the dosage level (in vivo; [6]): toxic | tolerability of the dosage level (in vivo; [7]): toxic | tolerability of the dosage level (in vivo; low folate diet, 60 mg/kg, tolerated if treatment-related weight loss <20%): toxic | body weight nadir (Day) (in vivo; low folate diet, across 60, 15 and 3.75 mg/kg): 10-12 | common clinical signs (in vivo; [8]): rough pelage | necropsy findings (in vivo; [8]): nothing significant | common clinical signs (in vivo; [9]): rough pelage and diarrhea | necropsy findings (in vivo; [9]): bloated, air-filled stomachs, pale livers, and necrotic intestines | Max. Mean Body Weight change during Rx (%) (in vivo; [10]): −12.8% | Max. Mean Body Weight change during Rx (%) (in vivo; [11]): −30.7% | Max. Mean Body Weight change during Rx (%) (in vivo; [12]): −38.4% | Max. Mean Body Weight change during Rx (%) (in vivo; low folate diet, intravenously once each day for ten days, 60 mg/kg/inj dose equivalents): −38.1% | Day of Max. Mean Body Weight Loss (body weight nadir) (in vivo; [3]): 12 | % Rx Related Deaths (in vivo; low folate diet, 1 mg/kg/inj dose equivalents, 1 mg/kg): 0% | % Rx Related Deaths (in vivo; low folate diet, 1 mg/kg/inj dose equivalents, listed as PMX, 1 mg/kg): no treatment-related mortality | % Rx Related Deaths (in vivo; [5]): 0% | Day of Max. Mean Body Weight Loss (body weight nadir) (in vivo; [5]): 12 | % Rx Related Deaths (in vivo; [13]): 40% | Day of Max. Mean Body Weight Loss (body weight nadir) (in vivo; [13]): 10 | % Rx Related Deaths (in vivo; [14]): 100% | Day of Max. Mean Body Weight Loss (body weight nadir) (in vivo; [14]): 10 | tolerability of the dosage level (in vivo; mouse, in vivo): toxic | Lethality (in vivo; normal diet, 500 mg/kg): 100% | MTD ([1]; mouse, in vivo, dose equivalents): 50 mg/kg | BWL (body weight loss) ([1]; tested dose (equiv) 50): −9.7% | day (of body weight loss) ([1]; tested dose (equiv) 50): 2 | treatment-related deaths ([1]; tested dose (equiv) 50): 0 | BWL (body weight loss) ([1]; tested dose (equiv) 80): −3.8% | day (of body weight loss) ([1]; tested dose (equiv) 80): 2 | treatment-related deaths ([1]; tested dose (equiv) 80): 0 | BWL (body weight loss) ([1]; tested dose (equiv) 120): −4.1% | day (of body weight loss) ([1]; tested dose (equiv) 120): 2 | treatment-related deaths ([1]; tested dose (equiv) 120): 0 | tumor volume compared with saline control (xenograft): significantly less tumor volume than saline control | drug excreted unchanged in the urine [2]: 70-90% | half-life [2]: 3.5 h
